Reference: US9394520B2, “Expansion of hematopoietic stem cells” (University of Rochester, priority 2006, dated 2016)
“Also recorded” adds a separate entry of the source.

How the values were obtained:
Jagged1 [1] = assay: Jagged1 mRNA by real time RT-PCR in UMR106 cells; type: cell-based
Method: UMR 106 cells were serum starved for 24 hours and then treated with a single dose of vehicle (controls) or PGE2 at a concentration of 10^-7 M. RNA was collected from both control and treated samples to assess the fold change in Jagged1 mRNA by real time RT-PCR analysis corrected for by beta-actin. FIG. 1B is a Western blot showing total protein that was collected from both control and treated samples exposed to Jagged1 antibody, C20. Positive control (+ctr) was provided by HS27a cells, a human stromal cell line with high levels of Jagged1 protein, while HS5 cells from a human stromal cell line with minimal Jagged1 levels were used as a negative control. […] UMR106 cells were serum starved for 24 hours. They were pre-treated with H89 for 30 minutes followed by a single dose of PGE2 at 10^-7 M or vehicle. RNA was collected from both control and treated samples to assess the fold change in Jagged1 RNA by real time RT-PCR analysis corrected for by β-actin. […] UMR106 cells were serum starved for 24 hours. […] Total protein was collected from both PGE2 and vehicle treated samples for Western blot analysis with Jagged1 antibody C-20. UMR106 cells were grown in DMEM supplemented with 1.5 g/l sodium bicarbonate, 10% FBS, penicillin (100 U/ml), streptomycin (100 U/ml). After three days of growth the cells were 80% confluent and media was replaced with serum-free media. After 24 hr in serum-free media, PGE2 was added in noted concentrations. UMR 106 cells were treated with the Protein Kinase A (PKA) inhibitors H89 (0.5 hr prior to PGE2 treatment), and myristoylated PKI (0.5 hr prior to PGE2 treatment). […] At the designated times, total RNA and protein were harvested. Total RNA was extracted and analyzed by real time RT-PCR, normalizing for β-actin expression and t=0. Total protein was analyzed by Western blots performed using the […] system (Invitrogen, Carlsbad, Calif.). Blots were probed with Jag1 c-20 antibody (Santa Cruz Biotechnology, Inc., Santa Cruz, Calif.), and the loading control was B-actin.

Jagged1 [2] = assay: Jagged1 protein by Western blot in UMR106 cells; type: cell-based; conditions: UMR106 cells, PKI 200 μg/ml pre-treatment, then PGE2 10^−7 M
Method: UMR 106 cells were serum starved for 24 hours and then treated with a single dose of vehicle (controls) or PGE2 at a concentration of 10^-7 M. RNA was collected from both control and treated samples to assess the fold change in Jagged1 mRNA by real time RT-PCR analysis corrected for by beta-actin. FIG. 1B is a Western blot showing total protein that was collected from both control and treated samples exposed to Jagged1 antibody, C20. Positive control (+ctr) was provided by HS27a cells, a human stromal cell line with high levels of Jagged1 protein, while HS5 cells from a human stromal cell line with minimal Jagged1 levels were used as a negative control. FIG. 2A is a graph showing that inhibition of PKA blocks PGE2-dependent increase of Jagged1 in UMR 106 cells. UMR106 cells were serum starved for 24 hours. They were pre-treated with H89 for 30 minutes followed by a single dose of PGE2 at 10^-7 M or vehicle. RNA was collected from both control and treated samples to assess the fold change in Jagged1 RNA by real time RT-PCR analysis corrected for by β-actin. […] UMR106 cells were serum starved for 24 hours. […] Total RNA was extracted and analyzed by real time RT-PCR, normalizing for β-actin expression and t=0. Total protein was analyzed by Western blots performed using the […] system (Invitrogen, Carlsbad, Calif.). […]

O=C(O)CC/C=C\CC[C@H]1[C@H](N2CCOCC2)C(=O)C[C@H]1OCc1ccc(-c2ccccc2)cc1 [AH23848]
PGE2-induced expression of Jagged1 (Jagged1 [1]; osteoblastic cells pretreated 30 minutes with 30 μM AH23848, then PGE2): did not inhibit

CCCC1([C@H](O)C/C=C/[C@H]2[C@H](O)CC(=O)[C@@H]2CCCCCCC(=O)OC)CCC1 [Butaprost, butaprost]
PGE2-induced Jagged1 expression (Jagged1 [1]; UMR 106 cells, butaprost 10 μM): inhibited

O=S(=O)(NCCNC/C=C/c1ccc(Br)cc1)c1cccc2cnccc12 [H89]
PGE2-dependent Jagged1 mRNA increase in presence of PKA inhibitor (Jagged1 [1]; UMR106 cells, H89 pre-treatment 30 minutes, then PGE2 10^−7 M): blocked; also recorded: inhibited

CCCC(=O)Nc1ncnc2c1ncn2[C@@H]1O[C@@H]2COP(=O)(O)O[C@H]2[C@H]1OC(=O)CCC [dibutyryl-cAMP, n6 2′-0-dibutyryladenosine-3′, 5′-cyclic monophpsphate]
Jagged1 increase by cAMP analogs that activate PKA (Jagged1 [1]; UMR106 cells): sufficient to increase Jagged1

myristoylated PKA Inhibitory Peptide (14-22) [PKI]
PGE2-dependent Jagged1 protein increase in presence of PKA inhibitor (Jagged1 [2]): blocked; also recorded: inhibited
